One experiment deals with Enterococcus faecalis. In words: Antibacterial activity against Streptococcus faecalis. The experiment is classed as functional.
For a further experiment, the system named is Escherichia coli. Description: Antibacterial activity against Escherichia coli. The experiment is classed as functional.
In the next experiment the test system is Staphylococcus aureus. Description: Antibacterial activity against Staphylococcus aureus. The experiment is classed as functional.
In another experiment the test system is Pseudomonas aeruginosa. Description: Antibacterial activity against Pseudomonas aeruginosa. The class given is functional.
The next experiment relates to Klebsiella pneumoniae. In words: Antibacterial activity against Klebsiella pneumoniae. The class given is functional.
Another experiment deals with Trichophyton benhamiae. In words: Antifungal activity against Trichophyton mentagrophytes. The experiment is classed as functional, Arthroderma benhamiae.
Another experiment concerns Candida albicans. Description: Antifungal activity against Candida albicans. The experiment is classed as functional.
The subject of a further experiment is Cryptococcus neoformans. In words: Antifungal activity against Cryptococcus neoformans. The experiment is classed as functional.
For another experiment, the system named is Aspergillus fumigatus. Description: Antifungal activity against Aspergillus fumigatus. The experiment is classed as functional.
The test system of a further experiment is Sporothrix schenckii. In words: Antifungal activity against Sporothrix schenckii. The class given is functional.
Another experiment concerns Candida parapsilosis. In words: Antifungal activity against Candida parapsilosis. The class given is functional. The note with it: Lodderomyces parapsilosis, ATCC 22019.

A word on the MIC: it is the lowest concentration that inhibits growth of the organism. Low readings indicate greater potency, high ones weaker potency. The term MIC90 denotes the lowest concentration that inhibits either 90% of growth or 90% of the strains tested, depending on the study. A lower MIC90 goes with higher susceptibility.

Converted amounts (≈) assume the structure as drawn.

Take `O=C1c2sc3nccn3c2C(=O)c2c(O)ccc(O)c21`: the MIC in the experiment with Enterococcus faecalis was 25 µg/mL (≈ 87.3 µM); with Escherichia coli, 50 µg/mL (≈ 175 µM); in the experiment on Staphylococcus aureus, 50 µg/mL (≈ 175 µM); against Pseudomonas aeruginosa, over 50 µg/mL; against Klebsiella pneumoniae, over 50 µg/mL; in the experiment with Trichophyton benhamiae it was 25 µg/mL (≈ 87.3 µM). The MIC with Candida albicans was 25 µg/mL (≈ 87.3 µM); against Cryptococcus neoformans, under 12.5 µg/mL; in the experiment on Aspergillus fumigatus it was over 50 µg/mL; against Sporothrix schenckii, under 12.5 µg/mL.

For `C[C@@H]1[C@H](O)[C@@H](C)/C=C/C=C/C=C/C=C/C=C/C=C/C=C/[C@H](O[C@@H]2O[C@H](C)[C@@H](O)[C@H](N)[C@@H]2O)C[C@@H]2O[C@](O)(C[C@@H](O)C[C@@H](O)[C@H](O)CC[C@@H](O)C[C@@H](O)CC(=O)O[C@H]1C)C[C@H](O)[C@H]2C(=O)O` [AMPHOTERICIN B], the MIC was found to be 1.56 µg/mL (≈ 1.69 µM) in the experiment on Trichophyton benhamiae, 0.39 µg/mL (≈ 0.422 µM) in the experiment with Candida albicans and 0.78 µg/mL (≈ 0.844 µM) against Cryptococcus neoformans.

In the case of `COC(=O)C/N=C1\C=C(O)c2ccccc2C1=O`, the MIC is over 50 µg/mL against Trichophyton benhamiae; 50 µg/mL (≈ 204 µM) against Candida albicans; 50 µg/mL (≈ 204 µM) with Candida parapsilosis; 50 µg/mL (≈ 204 µM) against Cryptococcus neoformans; 25 µg/mL (≈ 102 µM) in the experiment with Aspergillus fumigatus; 50 µg/mL (≈ 204 µM) against Sporothrix schenckii.

In the case of `O=C1c2ccccc2C(=O)c2c1sc1nccn21`, the minimal inhibitory concentration (MIC) against Enterococcus faecalis was 25 µg/mL (≈ 98.3 µM); with Escherichia coli it was 50 µg/mL (≈ 197 µM); in the experiment on Staphylococcus aureus, 50 µg/mL (≈ 197 µM); against Pseudomonas aeruginosa it was over 50 µg/mL; against Klebsiella pneumoniae, over 50 µg/mL; in the experiment with Trichophyton benhamiae it was 25 µg/mL (≈ 98.3 µM). The MIC was 50 µg/mL (≈ 197 µM) in the experiment on Candida albicans, 12.5 µg/mL (≈ 49.2 µM) with Cryptococcus neoformans, 25 µg/mL (≈ 98.3 µM) against Aspergillus fumigatus and 25 µg/mL (≈ 98.3 µM) against Sporothrix schenckii.

For NYSTATIN, the MIC was 7.8 µg/mL against Candida albicans, 3.5 µg/mL against Cryptococcus neoformans and 13.2 µg/mL in the experiment on Sporothrix schenckii.

On to `CC(C)N(C1=CC(=O)c2c(O)ccc(O)c2C1=O)C(C)C`, for which the MIC against Trichophyton benhamiae was 50 µg/mL (≈ 173 µM); with Candida albicans, over 50 µg/mL; against Cryptococcus neoformans, over 50 µg/mL; against Aspergillus fumigatus, over 50 µg/mL; in the experiment with Sporothrix schenckii it was over 50 µg/mL.

GENTAMICIN: the MIC in the experiment on Staphylococcus aureus stood at 0.78 µg/mL; against Pseudomonas aeruginosa, 0.78 µg/mL; with Klebsiella pneumoniae, 0.39 µg/mL.

Regarding `COC(=O)C(CCSC)/N=C1\C=C(O)c2ccccc2C1=O` (centres undefined), the MIC in the experiment with Enterococcus faecalis is 12.5 µg/mL (≈ 39.1 µM); against Escherichia coli it was over 50 µg/mL; against Staphylococcus aureus, over 50 µg/mL; in the experiment on Pseudomonas aeruginosa, over 50 µg/mL; against Klebsiella pneumoniae, 6.25 µg/mL (≈ 19.6 µM); in the experiment with Trichophyton benhamiae, over 50 µg/mL. In addition, the MIC with Candida albicans is over 50 µg/mL; against Candida parapsilosis, over 50 µg/mL; with Cryptococcus neoformans, 25 µg/mL (≈ 78.3 µM); in the experiment on Aspergillus fumigatus it was over 50 µg/mL; against Sporothrix schenckii it was over 50 µg/mL.

As for `Clc1ccc(COC(Cn2ccnc2)c2ccc(Cl)cc2Cl)c(Cl)c1` (centres undefined) [MICONAZOLE], the MIC was under 0.78 µg/mL against Trichophyton benhamiae, 25 µg/mL (≈ 60.1 µM) in the experiment on Candida albicans, 12.5 µg/mL (≈ 30 µM) with Cryptococcus neoformans and 12.5 µg/mL (≈ 30 µM) in the experiment on Aspergillus fumigatus.

Regarding `O=C1C(=O)c2ccccc2C(O)=C1Sc1ncc[nH]1`, the MIC with Enterococcus faecalis was 25 µg/mL (≈ 91.8 µM); against Escherichia coli, over 50 µg/mL; in the experiment on Staphylococcus aureus, 50 µg/mL (≈ 184 µM); against Pseudomonas aeruginosa it was over 50 µg/mL; with Klebsiella pneumoniae it was over 50 µg/mL; against Trichophyton benhamiae, over 50 µg/mL. Also, the MIC against Candida albicans is over 50 µg/mL; in the experiment with Candida parapsilosis it was over 50 µg/mL; against Cryptococcus neoformans, 50 µg/mL (≈ 184 µM); against Aspergillus fumigatus, over 50 µg/mL; against Sporothrix schenckii, over 50 µg/mL.

For the compound `COC(=O)C(CC(C)C)/N=C1\C=C(O)c2ccccc2C1=O` (centres undefined), the MIC with Enterococcus faecalis is 12.5 µg/mL (≈ 41.5 µM); in the experiment with Escherichia coli, 12.5 µg/mL (≈ 41.5 µM); with Staphylococcus aureus, 12.5 µg/mL (≈ 41.5 µM); in the experiment on Pseudomonas aeruginosa it was over 50 µg/mL; in the experiment with Klebsiella pneumoniae it was 6.25 µg/mL (≈ 20.7 µM); in the experiment on Trichophyton benhamiae, over 50 µg/mL. In addition, the MIC is over 50 µg/mL against Candida albicans; 50 µg/mL (≈ 166 µM) against Candida parapsilosis; 25 µg/mL (≈ 83 µM) against Cryptococcus neoformans; over 50 µg/mL in the experiment with Aspergillus fumigatus; over 50 µg/mL in the experiment on Sporothrix schenckii.

`COC(=O)C/N=C1/C(=O)c2ccccc2C(O)=C1O`: the MIC in the experiment on Enterococcus faecalis was 50 µg/mL (≈ 191 µM); against Escherichia coli it was 50 µg/mL (≈ 191 µM); against Staphylococcus aureus, 50 µg/mL (≈ 191 µM); with Pseudomonas aeruginosa, 50 µg/mL (≈ 191 µM); against Klebsiella pneumoniae, over 50 µg/mL.

With `NCC[C@H](O)C(=O)N[C@@H]1C[C@H](N)[C@@H](O[C@H]2O[C@H](CN)[C@@H](O)[C@H](O)[C@H]2O)[C@H](O)[C@H]1O[C@H]1O[C@H](CO)[C@@H](O)[C@H](N)[C@H]1O` [AMIKACIN], the MIC in the experiment on Enterococcus faecalis is over 64 µg/mL; against Escherichia coli, 1 µg/mL (≈ 1.71 µM); in the experiment on Staphylococcus aureus, 16 µg/mL (≈ 27.3 µM); in the experiment with Pseudomonas aeruginosa, 2 µg/mL (≈ 3.42 µM); against Klebsiella pneumoniae, 1 µg/mL (≈ 1.71 µM).

Consider `NC[C@H]1O[C@H](O[C@H]2[C@H](O)[C@@H](O[C@H]3O[C@H](CO)[C@@H](O)[C@H](N)[C@H]3O)[C@H](N)C[C@@H]2N)[C@H](O)[C@@H](O)[C@@H]1O` [KANAMYCIN], for which the MIC90 against Escherichia coli is 16 µg/mL (≈ 33 µM); with Staphylococcus aureus, 2 µg/mL (≈ 4.13 µM); in the experiment on Pseudomonas aeruginosa, over 128 µg/mL; against Klebsiella pneumoniae, 32 µg/mL (≈ 66 µM).

For `COC(=O)C(CCSC)/N=C1/C(=O)c2ccccc2C(O)=C1O` (centres undefined), the MIC was 25 µg/mL (≈ 74.5 µM) in the experiment with Enterococcus faecalis; over 50 µg/mL in the experiment with Escherichia coli; over 50 µg/mL against Staphylococcus aureus; over 50 µg/mL in the experiment on Pseudomonas aeruginosa; over 50 µg/mL against Klebsiella pneumoniae; 12.5 µg/mL (≈ 37.3 µM) with Trichophyton benhamiae. For the same compound, the MIC in the experiment with Candida albicans came out at 12.5 µg/mL (≈ 37.3 µM); against Candida parapsilosis, 25 µg/mL (≈ 74.5 µM); with Cryptococcus neoformans it was 12.5 µg/mL (≈ 37.3 µM); in the experiment with Aspergillus fumigatus, 12.5 µg/mL (≈ 37.3 µM); with Sporothrix schenckii, 25 µg/mL (≈ 74.5 µM).

On to `OC(Cn1cncn1)(Cn1cncn1)c1ccc(F)cc1F` [FLUCONAZOLE], for which the MIC was found to be 0.5 µg/mL (≈ 1.63 µM) against Trichophyton benhamiae; 1 µg/mL (≈ 3.27 µM) in the experiment on Candida albicans; 2 µg/mL (≈ 6.53 µM) in the experiment on Candida parapsilosis; 1 µg/mL (≈ 3.27 µM) with Cryptococcus neoformans; 2 µg/mL (≈ 6.53 µM) in the experiment on Aspergillus fumigatus; 2 µg/mL (≈ 6.53 µM) with Sporothrix schenckii.

For `COC(=O)C(C)/N=C1/C(=O)c2ccccc2C(O)=C1O` (centres undefined), the MIC in the experiment with Trichophyton benhamiae was over 50 µg/mL; against Candida albicans, over 50 µg/mL; against Candida parapsilosis, 50 µg/mL (≈ 182 µM); in the experiment on Cryptococcus neoformans, 25 µg/mL (≈ 90.8 µM); against Aspergillus fumigatus, over 50 µg/mL; against Sporothrix schenckii it was over 50 µg/mL.

Take `COC(=O)C(C)/N=C1\C=C(O)c2ccccc2C1=O` (centres undefined): the minimum inhibitory concentration (MIC) is over 50 µg/mL against Enterococcus faecalis; over 50 µg/mL against Escherichia coli; over 50 µg/mL against Staphylococcus aureus; over 50 µg/mL in the experiment on Pseudomonas aeruginosa; 25 µg/mL (≈ 96.4 µM) against Klebsiella pneumoniae.

Regarding `NC[C@H]1O[C@H](O[C@H]2[C@H](O)[C@@H](O[C@H]3O[C@H](CO)[C@@H](O)[C@H](N)[C@H]3O)[C@H](N)C[C@@H]2N)[C@H](N)C[C@@H]1O` [TOBRAMYCIN], the MIC against Enterococcus faecalis is 32 µg/mL (≈ 68.4 µM); in the experiment on Escherichia coli, 0.5 µg/mL (≈ 1.07 µM); against Staphylococcus aureus, 0.25 µg/mL (≈ 0.535 µM); in the experiment with Pseudomonas aeruginosa, 4 µg/mL (≈ 8.56 µM); against Klebsiella pneumoniae, 1 µg/mL (≈ 2.14 µM).

As to `CC(C)N(C1=C(O)C(=O)c2ccccc2C1=O)C(C)C`, the MIC in the experiment with Enterococcus faecalis is over 50 µg/mL; against Escherichia coli, over 50 µg/mL; against Staphylococcus aureus it was over 50 µg/mL; in the experiment with Pseudomonas aeruginosa it was 50 µg/mL (≈ 183 µM); with Klebsiella pneumoniae it was over 50 µg/mL.

The values above are taken from ChEMBL document CHEMBL1141945, “Synthesis and biological evaluation of novel (L)-alpha-amino acid methyl ester, heteroalkyl, and aryl substituted 1,4-naphthoquinone derivatives as antifungal and antibacterial agents” (2005).
